Laboratory results taken from patent publication US11679107B2 (Eisai R&D Management Co., Ltd., priority 2018, dated 2023).
Where two headings read alike, the source gives them in different places.

Key:
[1] = molecular target: T1, SF3b complexes (Homo sapiens, UniProt O75533+Q7RTV0); experiment: Scintillation proximity assay (SPA) with [3H]-labelled pladienolide probe; assay type: binding; details: SF3B1 (WT); geometric mean; read-out: SPA-ATS GMean IC50 (nM) SF3B1 (WT)
T1 construct: endogenous in cells; host or cells: Nuclear extracts; A HeLa S3 extract preparation is described for the in vitro splicing assay
How it was run: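 SF3b complexes captured from nuclear extracts on anti-SF3B1 antibody SPA beads; test compounds pre-incubated 30 min before 2.5 nM [3H]-pladienolide probe added, then 30 min incubation. Bound probe read by scintillation; values from non-linear regression of concentration–response curves.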

[2] = system: NCI-H1568 cells (high MCL1); experiment: Cell proliferation and viability, CellTiter-Glo, 72 hours; assay type: cell-based; details: for GI50: geometric mean
How it was run: (§1)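 ATP luminescence (CellTiter-Glo) was measured 72 h after treatment with compound at 10 μM–100 pM (11 points, half-log) in 0.1% DMSO. The Panc line was grown in RPMI-1640 plus insulin and 15% FBS, the other in 10% FBS. Data were normalised to time zero and vehicle controls, where −100% is cidal and 0% static.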

[3] = system: Panc 05.04 cells (SF3b K700E mutant); experiment: as above; assay type: cell-based; details: for GI50: geometric mean
How it was run: as §1

[4] = system: Ad2 variant pre-mRNAs spliced in HeLa S3 nuclear extracts; experiment: In vitro splicing assay (IVS), RT-qPCR of spliced product; assay type: biochemical; details: for IC50: geometric mean; for Ratio Ad2.1/2.2: ratio of IVS IC50 Ad2.1 to Ad2.2
How it was run: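 Read-out is one-step TaqMan RT-qPCR of spliced Ad2 mRNA with Ftz as reference, normalized to DMSO and fit by non-linear regression. Reactions held HeLa S3 nuclear extract, 2 ng Ad2-derived pre-mRNA and test compound, with 15 min preincubation. Splicing was started with ATP-containing activation buffer and run 90 min at 30 °C.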

[5] = 72 h, NCIH1568.1, -100% = cidal, 0% = static, 100% = uninhibited growth
[6] = NCI-H1568, read-out: CTGlo-ATS GMean GI50 (nM) 72 h NCIH1568.1, 72 h, NCIH1568.1
[7] = 72 h, PANC0504.1, -100% = cidal, 0% = static, 100% = uninhibited growth
[8] = Panc 05.04, read-out: CTGlo-ATS GMean GI50 (nM) 72 h PANC0504.1, 72 h, PANC0504.1
[9] = Ad2.1 pre-mRNA substrate, read-out: qPCR-IVS-ATS GMean IC50 (nM) Ad2.1
[10] = Ad2.2 pre-mRNA substrate, read-out: qPCR-IVS-ATS GMean IC50 (nM) Ad2.2
[11] = NCI-H1568, 72 h, read-out: CTGlo-ATS GMean GI50 (nM) 72 h NCIH1568.1, 72 h, NCIH1568.1
[12] = Panc 05.04, 72 h, read-out: CTGlo-ATS GMean GI50 (nM) 72 h PANC0504.1, 72 h, PANC0504.1
[13] = NCI-H1568, read-out: CTGlo-ATS GMean GI50 (nM) 72 h NCIH1568.1, NCIH1568.1 cells, 72 h
[14] = NCIH1568.1 cells, 72 h, −100% cidal, 0% static, 100% maximal growth
[15] = PANC0504.1 cells, 72 h, −100% cidal, 0% static, 100% maximal growth
[16] = Panc 05.04, read-out: CTGlo-ATS GMean GI50 (nM) 72 h PANC0504.1, PANC0504.1 cells, 72 h

SMILES: C/C(=C\c1cccc(S(=O)(=O)N2CCCC2C)c1)[C@H]1OC(=O)CC(O)CCC(C)[C@@H](OC(=O)N2CCN(C)CC2)/C=C/[C@@H]1C (stereo in doubt) [Compound 200, [(2S,3S,4E,6R,7R,10S)-10-hydroxy-3,7-dimethyl-2-[(E)-1-[3-[(2S)-2-methylpyrrolidin-1-yl]sulfonylphenyl]prop-1-en-2-yl]-12-oxo-1-oxacyclododec-4-en-6-yl] 4-methylpiperazine-1-carboxylate]
- IC50 [1]: 8.03 nM
- CTGlo-ATS Mean MinResponse % 72 h NCIH1568.1 [2, 5]: −51.281%
- GI50 [2, 6]: 24.2 nM
- CTGlo-ATS Mean MinResponse % 72 h PANC0504.1 [3, 7]: −94.085%
- GI50 [3, 8]: 17.4 nM
- IC50 [4, 9]: 8050 nM
- IC50 [4, 10]: 27 nM
- Ratio Ad2.1/2.2 [4]: 297.600

SMILES: C/C(=C\c1cccc(S(=O)(=O)NC(C)C)c1)[C@H]1OC(=O)CC(O)CCC(C)[C@@H](OC(=O)N2CCN(C)CC2)/C=C/[C@@H]1C (stereo in doubt) [Compound 209, [(2S,3S,4E,6R,7R,10S)-10-hydroxy-3,7-dimethyl-12-oxo-2-[(E)-1-[3-(propan-2-ylsulfamoyl)phenyl]prop-1-en-2-yl]-1-oxacyclododec-4-en-6-yl] 4-methylpiperazine-1-carboxylate]
- IC50 [1]: 4.78 nM
- CTGlo-ATS Mean MinResponse % 72 h NCIH1568.1 [2, 5]: −51.998%
- GI50 [2, 6]: 12.1 nM
- CTGlo-ATS Mean MinResponse % 72 h PANC0504.1 [3, 7]: −93.368%
- GI50 [3, 8]: 16.4 nM
- IC50 [4, 9]: 3130 nM
- IC50 [4, 10]: 30 nM
- Ratio Ad2.1/2.2 [4]: 104.297

SMILES: CCNS(=O)(=O)c1cccc(/C=C(\C)[C@H]2OC(=O)CC(O)CCC(C)[C@@H](OC(=O)N3CCN(C)CC3)/C=C/[C@@H]2C)c1 (stereo in doubt) [Compound 210, [(2S,3S,4E,6R,7R,10S)-2-[(E)-1-[3-(ethylsulfamoyl)phenyl]prop-1-en-2-yl]-10-hydroxy-3,7-dimethyl-12-oxo-1-oxacyclododec-4-en-6-yl] 4-methylpiperazine-1-carboxylate]
- IC50 [1]: 4.35 nM
- CTGlo-ATS Mean MinResponse % 72 h NCIH1568.1 [2, 5]: −51.154%
- GI50 [2, 11]: 17 nM
- CTGlo-ATS Mean MinResponse % 72 h PANC0504.1 [3, 7]: −96.896%
- GI50 [3, 12]: 27.8 nM
- IC50 [4, 9]: 11000 nM
- IC50 [4, 10]: 32.7 nM
- Ratio Ad2.1/2.2 [4]: 336.112

SMILES: CNS(=O)(=O)c1cccc(/C=C(\C)[C@H]2OC(=O)CC(O)CCC(C)[C@@H](OC(=O)N3CCN(C)CC3)/C=C/[C@@H]2C)c1 (stereo in doubt) [Compound 212, [(2S,3S,4E,6R,7R,10S)-10-hydroxy-3,7-dimethyl-2-[(E)-1-[3-(methylsulfamoyl)phenyl]prop-1-en-2-yl]-12-oxo-1-oxacyclododec-4-en-6-yl] 4-methylpiperazine-1-carboxylate]
- IC50 [1]: 8.79 nM
- CTGlo-ATS Mean MinResponse % 72 h NCIH1568.1 [2, 5]: −49.302%
- GI50 [2, 6]: 129 nM
- CTGlo-ATS Mean MinResponse % 72 h PANC0504.1 [3, 7]: −59.089%
- GI50 [3, 8]: 60.2 nM
- IC50 [4, 9]: > 25000 nM
- IC50 [4, 10]: 93.8 nM
- Ratio Ad2.1/2.2 [4]: 266.536

SMILES: [2H]C([2H])([2H])N1CCN(C(=O)O[C@H]2/C=C/C(C)C(/C(C)=C/c3cc(F)cc(N4CCOCC4)c3)OC(=O)CC(O)CC[C@@H]2C)CC1 (stereo in doubt) [Compound 220, [(2R,3R,4E,6R,7S,10S)-2-[(E)-1-(3-fluoro-5-morpholin-4-ylphenyl)prop-1-en-2-yl]-10-hydroxy-3,7-dimethyl-12-oxo-1-oxacyclododec-4-en-6-yl] 4-(trideuteriomethyl)piperazine-1-carboxylate]
- IC50 [1]: 3.17 nM
- CTGlo-ATS Mean MinResponse % 72 h NCIH1568.1 [2, 5]: −76.936%
- GI50 [2, 11]: 2.01 nM
- CTGlo-ATS Mean MinResponse % 72 h PANC0504.1 [3, 7]: −90.506%
- GI50 [3, 12]: 4.36 nM
- IC50 [4, 9]: 19.3 nM
- IC50 [4, 10]: 14.4 nM
- Ratio Ad2.1/2.2 [4]: 1.344

SMILES: C/C(=C\c1cc(F)cc(N2CCOCC2)c1)[C@H]1OC(=O)C[C@H](O)CC[C@H](C)[C@@H](OC(=O)N2CCC(N(C)C)C2)/C=C/[C@@H]1C (stereo in doubt) [Compound 243, [(2S,3S,4E,6R,7S,10R)-2-[(E)-1-(3-fluoro-5-morpholin-4-ylphenyl)prop-1-en-2-yl]-10-hydroxy-3,7-dimethyl-12-oxo-1-oxacyclododec-4-en-6-yl] (3S)-3-(dimethylamino)pyrrolidine-1-carboxylate]
- IC50 [1]: 3.59 nM
- CTGlo-ATS Mean MinResponse % 72 h NCIH1568.1 [2, 5]: −71.678%
- GI50 [2, 6]: 10.6 nM
- CTGlo-ATS Mean MinResponse % 72 h PANC0504.1 [3, 7]: −92.290%
- GI50 [3, 8]: 10.4 nM
- IC50 [4, 9]: 98.4 nM
- IC50 [4, 10]: 38.5 nM
- Ratio Ad2.1/2.2 [4]: 2.553

SMILES: COCC(=O)Nc1cc(F)cc(/C=C(\C)[C@H]2OC(=O)CC(O)CCC(C)[C@@H](OC(=O)N3CCN(C)CC3)/C=C/[C@@H]2C)c1 (stereo in doubt) [Compound 249, [(2S,3S,4E,6R,7R,10S)-2-[(E)-1-[3-fluoro-5-[(2-methoxyacetyl)amino]phenyl]prop-1-en-2-yl]-10-hydroxy-3,7-dimethyl-12-oxo-1-oxacyclododec-4-en-6-yl] 4-methylpiperazine-1-carboxylate]
- IC50 [1]: 5.16 nM
- CTGlo-ATS Mean MinResponse % 72 h NCIH1568.1 [2, 5]: −49.016%
- GI50 [2, 6]: 14.5 nM
- CTGlo-ATS Mean MinResponse % 72 h PANC0504.1 [3, 7]: −93.297%
- GI50 [3, 8]: 13.8 nM
- IC50 [4, 9]: 6350 nM
- IC50 [4, 10]: 33.6 nM
- Ratio Ad2.1/2.2 [4]: 188.921

SMILES: C/C(=C\c1cccc(N2CCNCC2)c1)[C@H]1OC(=O)C[C@H](O)CC[C@H](C)[C@@H](OC(=O)N2CCN(C)CC2)/C=C/[C@@H]1C [Compound 1]
- IC50 [1]: 19.8 nM
- GI50 [2, 13]: 61.2 nM
- CTGlo-ATS Mean MinResponse % 72 h NCIH1568.1 [2, 14]: −71.582%
- CTGlo-ATS Mean MinResponse % 72 h PANC0504.1 [3, 15]: −79.550%
- GI50 [3, 16]: 54.8 nM
- IC50 [4, 9]: 28.9 nM
- IC50 [4, 10]: 18.7 nM

SMILES: C/C(=C\c1cccc(N2CCN(C)CC2)c1)[C@H]1OC(=O)C[C@H](O)CC[C@H](C)[C@@H](OC(=O)N2CCN(C)CC2)/C=C/[C@@H]1C [Compound 2]
- IC50 [1]: 14.7 nM
- GI50 [2, 13]: 40.6 nM
- CTGlo-ATS Mean MinResponse % 72 h NCIH1568.1 [2, 14]: −70.665%
- CTGlo-ATS Mean MinResponse % 72 h PANC0504.1 [3, 15]: −76.626%
- GI50 [3, 16]: 30.3 nM
- IC50 [4, 9]: 29.3 nM
- IC50 [4, 10]: 24.8 nM

SMILES: C/C(=C\c1cc(F)cc(N2CCOCC2)c1)[C@H]1OC(=O)C[C@H](O)CC[C@H](C)[C@@H](OC(=O)N2CCN(C)CC2)/C=C/[C@@H]1C [Compound 3]
- IC50 [1]: 1.74 nM
- GI50 ([2]; NCI-H1568, 72 h, read-out: CTGlo-ATS GMean GI50 (nM) 72 h NCIH1568.1, NCIH1568.1 cells, 72 h): 2.42 nM
- CTGlo-ATS Mean MinResponse % 72 h NCIH1568.1 [2, 14]: −78.460%
- CTGlo-ATS Mean MinResponse % 72 h PANC0504.1 [3, 15]: −87.809%
- GI50 ([3]; Panc 05.04, 72 h, read-out: CTGlo-ATS GMean GI50 (nM) 72 h PANC0504.1, PANC0504.1 cells, 72 h): 2.96 nM
- IC50 [4, 9]: 18.6 nM
- IC50 [4, 10]: 10.3 nM

SMILES: C/C(=C\c1ccc2cn[nH]c2c1)[C@H]1OC(=O)C[C@H](O)CC[C@H](C)[C@@H](OC(=O)N2CCN(C)CC2)/C=C/[C@@H]1C [Compound 4]
- IC50 [1]: 3.8 nM
- GI50 [2, 13]: 15.5 nM
- CTGlo-ATS Mean MinResponse % 72 h NCIH1568.1 [2, 14]: −46.416%
- CTGlo-ATS Mean MinResponse % 72 h PANC0504.1 [3, 15]: −27.423%
- GI50 [3, 16]: 26.9 nM
- IC50 [4, 9]: > 25000 nM
- IC50 [4, 10]: 58.7 nM

SMILES: C/C(=C\c1cccc2[nH]ncc12)[C@H]1OC(=O)C[C@H](O)CC[C@H](C)[C@@H](OC(=O)N2CCN(C)CC2)/C=C/[C@@H]1C [Compound 5]
- IC50 [1]: 6.61 nM
- GI50 [2, 13]: 59.7 nM
- CTGlo-ATS Mean MinResponse % 72 h NCIH1568.1 [2, 14]: −38.293%
- CTGlo-ATS Mean MinResponse % 72 h PANC0504.1 [3, 15]: −17.631%
- GI50 [3, 16]: 47.2 nM
- IC50 [4, 9]: 1500 nM
- IC50 [4, 10]: 94.7 nM

SMILES: C/C(=C\c1ccnc(N2CCOCC2)c1)[C@H]1OC(=O)C[C@H](O)CC[C@H](C)[C@@H](OC(=O)N2CCN(C)CC2)/C=C/[C@@H]1C [Compound 6]
- IC50 [1]: 8.85 nM
- GI50 [2, 13]: 29.1 nM
- CTGlo-ATS Mean MinResponse % 72 h NCIH1568.1 [2, 14]: −17.149%
- CTGlo-ATS Mean MinResponse % 72 h PANC0504.1 [3, 15]: −88.664%
- GI50 [3, 16]: 15.7 nM
- IC50 [4, 9]: > 25000 nM
- IC50 [4, 10]: 75.3 nM
